In the supplement of paper PMC6723410 one finds viability data, which are given here for 50 molecules.

The first experiment deals with GUMC-403. The experiment in a line: viability at highest tested concentration (max response) relative to DMSO (% of DMSO control); higher = less cytotoxic. The settings on record: library / dose series: MIPE library, 11-point 1:3 dilution; top concentration 23 µM; 48 h. The method, boiled down:
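The value is viability at the highest tested concentration, expressed relative to vehicle control. Patient-derived GUMC-403 papilloma cells, grown by conditional reprogramming, were seeded at 700/well in 5 μL F + Y medium in 1536-well plates. After an overnight incubation at 37 °C, they received 23 nL of compound by pin tool for 48 h. Readout was CellTiter-Glo luminescence on a ViewLux, normalised to vehicle wells (100%) and empty wells (0%).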
With `CC[C@@]1([C@@H]2O[C@@H]([C@H]3O[C@@](O)(CO)[C@H](C)C[C@@H]3C)C[C@@H]2C)CC[C@H]([C@]2(C)CC[C@]3(C[C@H](O)[C@@H](C)[C@@H]([C@@H](C)[C@@H](OC)[C@H](C)C(=O)[O-])O3)O2)O1`, the viability is 116.

Still in this experiment, the particulars now being: library / dose series: MIPE library, 11-point 1:3 dilution; top concentration 46.1 µM; 48 h.
Regarding `C[C@]12CC[C@@H]3c4ccc(OC(=O)N(CCCl)CCCl)cc4CC[C@H]3[C@@H]1CC[C@@H]2OP(=O)([O-])[O-].[Na+].[Na+]`, the viability was found to be 124. `CC(=O)O[C@@]12CO[C@@H]1C[C@H](O)[C@]3(C)[C@@H]2[C@H](OC(=O)C4=CC=CC=C4)[C@]5(O)C[C@H](O)/C(=C(/[C@@H](O)C3=O)C5(C)C)C` yielded a viability of 117. On the same count and under the same terms, the figure for `NC(=O)c1cnc(-c2ccc(C3(N)CCC3)cc2)c(-c2ccccc2)c1` is 103. Still for that read-out and setting: the figure for `C/C=C(\C)C(=O)N[C@@H](c1ccccc1)[C@@H](O)C(=O)O[C@H]1C[C@@]2(O)[C@@H](OC(=O)c3ccccc3)[C@@H]3[C@]4(OC(C)=O)CO[C@@H]4C[C@H](O)[C@@]3(C)C(=O)[C@H](OC(C)=O)C(=C1C)C2(C)C` is 111; for `ClC1=C(N\C2=N\CCN2)C3=NSN=C3C=C1` it is 129; for `C[N+]1(C)[C@@H]2CC(OC(=O)C(O)(c3cccs3)c3cccs3)C[C@H]1[C@@H]1O[C@@H]12` (stereo not given in full) it is 127. Consider `C\C1=C(\C=C(\C#N)C(=O)N1)C2=CC=NC=C2`, for which the viability was found to be 119. Molecule `COc1cc(/C=C/C(=O)O)ccc1O` came in with a viability of 115. The same measure, in the same setting: next, `COC1=CC=CC(=C1/C2=N/CC3=C(N=C(NC4=CC(=C(C=C4)C(O)=O)OC)N=C3)C5=CC=C(Cl)C=C25)F`: 45.4. The same measure, in the same setting: next, `O=C(Nc1ccncc1)C(=O)c1cn(Cc2ccc(Cl)cc2)c2ccccc12`: 112; `COc1cc([C@@H]2c3cc4c(cc3[C@@H](O)C3COC(=O)C32)OCO4)cc(OC)c1O` (stereo not given in full): 117; `CCCCCOC(=O)NC\1=N\C(=O)N(\C=C1F)[C@@H]2O[C@H](C)[C@@H](O)[C@H]2O`: 83.9. Take `CC1=C(C)C(=O)C(C(CCCCCC(=O)O)c2ccccc2)=C(C)C1=O` (stereo not given): the viability turned out to be 110.

The molecule `c1ccc2c(CN3CCNCC3)cccc2c1` gave a viability of 122. On the same count and under the same terms, next, `CC[C@]12CC[C@H]3[C@@H](CCC/4=C/C(=O)CC[C@H]34)[C@@H]1CC[C@@]2(O)C#C`: 93.2. In the case of `CN[C@@H](C)C(=O)N[C@H]1CCCC[C@H]2CC[C@@H](C(=O)N[C@@H](c3ccccc3)c3cn(CCCCc4ccc(CCCCn5cc([C@@H](NC(=O)[C@@H]6CC[C@@H]7CCCC[C@H](NC(=O)[C@H](C)NC)C(=O)N76)c6ccccc6)nn5)cc4)nn3)N2C1=O`, the viability came to 110. The same measure, in the same setting: the figure for `COC1=CC=C(C=C1O)C/2=C/C(=O)C3=C(O2)C=C(O[C@@H]4O[C@H](CO[C@@H]5O[C@@H](C)[C@H](O)[C@@H](O)[C@H]5O)[C@@H](O)[C@H](O)[C@H]4O)C=C3O` is 117; for `CCC(=O)O[C@@]1([C@@H](C)C[C@H]2[C@@H]3CCC/4=C/C(=O)/C=C\[C@]4(C)[C@@]3(F)[C@@H](O)C[C@]12C)C(=O)CCl` it is 148; for `CC(C)C[C@H](NC(=O)[C@@H](O)[C@H](N)Cc1ccccc1)C(=O)O` it is 102. Turning to `Cc1c(-c2cccc3c(CCCOc4cccc5ccccc45)c(C(=O)O)n(Cc4cccnc4)c23)c(COc2ccc(N3CCN([S+](=O)([O-])N(C)C)CC3)cc2)nn1C`, the viability amounted to 90.8. Still for that read-out and setting: the figure for `C[C@]12CC[C@@H]3c4ccc(O)cc4CC[C@H]3[C@@H]1C[C@@H](O)[C@@H]2O` is 87.

For the molecule `COc1cc2nc(N3CCN(C(=O)C4CCCO4)CC3)nc(N)c2cc1OC` (stereo not given), the viability came out at 126. The same measure, in the same setting: next, `CC(=O)Oc1cc2c(s1)CCN(C(C(=O)C1CC1)c1ccccc1F)C2.Cl` (stereo not given): 114; `CC(C)(C)NCC(O)c1ccc(O)c(CO)c1` (stereo not given): 109; `O=C(CCCCCCNC(=O)c1cnc(N(c2ccccc2)c2ccccc2)nc1)NO`: 117.

Regarding `Cn1cnc2c1c(=O)[nH]c(=O)n2C`, the viability was 127. Same read-out and setting: the figure for `O=C/1\C=C(/OC(=C1)/C2=C3SC4=C(SC3=CC=C2)C=CC=C4)N5CCOCC5` is 111. The molecule `O=C(O)CSCC(=O)NC1CCSC1=O` (stereo not given) registered a viability of 139. The same measure, in the same setting: the figure for `CN(C)[C@H]\1[C@@H]2[C@@H](O)[C@@H]\3C(=C)C4=C(C(=CC=C4)O)C(=O)C3=C(\O)[C@@]2(O)C(=O)\C(=C1O)C(N)=O` is 96.5; for `CNC1CCC(N(Cc2cccc(-c3ccncc3)c2)C(=O)c2sc3c(F)ccc(F)c3c2Cl)CC1` (stereo not given) it is 75.5; for `CC/C=C\C[C@H]1C(=O)CC[C@@H]1CC(=O)OC` it is 120. Still for that read-out and setting: the figure for `OC1=CC2=C(C(=C1)O)C(=O)\C=C(/O2)C3=CC=CC=C3` is 126. Same read-out and setting: next, `C/C=C/C/C=C/CCC(=O)[C@H]1O[C@H]1C(N)=O`: 93.5; `Cc1ccc([S+](=O)([O-])NC(=O)NN2CC3CCCC3C2)cc1` (stereo not given): 109; `CN1CCN(CCOc2cc(OC3CCOCC3)c3c(Nc4c(Cl)ccc5c4OCO5)ncnc3c2)CC1`: 75.9. `O=C([O-])C[C@H](O)C[C@H](O)/C=C/c1c(C2CC2)nc2ccccc2c1-c1ccc(F)cc1` came in with a viability of 92.1. Turning to `CCOc1ccccc1N/N=C1/C(=O)N(c2nc(-c3ccccc3)cs2)N=C1C`, the viability amounted to 115. On the same count and under the same terms, next, `Nc1ccc([S+](=O)([O-])Nc2ncccn2)cc1`: 131. The molecule `COc1cc(C(C)C)c(Oc2cnc(NC(CO)CO)nc2N)cc1I` displayed a viability of 115. The same measure, in the same setting: the figure for `C[C@]12CC[C@H]3[C@@H](CC[C@H]4NC(=O)\C=C/[C@]34C)[C@@H]1CC[C@@H]2C(=O)NC5=CC(=CC=C5C(F)(F)F)C(F)(F)F` is 96.3; for `COc1ccccc1N1CCN(CCN(C(=O)C2CCCCC2)c2ccccn2)CC1` it is 95.3; for `Nc1nc(Cl)nc2c1ncn2[C@@H]1O[C@H](CO)[C@@H](O)[C@@H]1F` it is 104. Molecule `CC(C)(Cc1ccc2ccccc2c1)NC[C@@H](O)COc1cccc(Cl)c1C#N` came in with a viability of 106. The molecule `CC[C@]12CC[C@H]3[C@@H](CCC/4=C/C(=O)CC[C@H]34)[C@@H]1\C=C/[C@@]2(O)C#C` returned a viability of 130. The molecule `COc1ccc2c(c1)[C@]13CCCCC1C(C2)N(C)CC3` (stereo not given in full) registered a viability of 102. The molecule `CO[C@H]1CCC(O[C@H]2C[C@H]([C@]3(C)CC[C@]4(C[C@H](O)[C@@H](C)[C@@H]([C@@H](C)/C=C(\C)C(=O)[C@H](C)C[C@H](C)C(=O)[O-])O4)O3)O[C@]3(O[C@@H]([C@H]4O[C@@](O)(CO)[C@H](C)C[C@@H]4C)C[C@@H]3C)[C@@H]2C)O[C@@H]1C` (stereo not given in full) came in with a viability of 104. Still for that read-out and setting: the figure for `CN(C)C(=O)c1ccc([S+](=O)([O-])c2ccc(NC(=O)[C@@](C)(O)C(F)(F)F)c(Cl)c2)cc1` is 113; for `C[C@@]12C[C@@]3(O)O[C@@H](O1)[C@]1(COC(=O)c4ccccc4)[C@H]3C[C@@]12O[C@@H]1O[C@H](CO)[C@@H](O)[C@H](O)[C@H]1O` it is 115.

Staying with this experiment, now noted: library / dose series: MIPE library, 11-point 1:3 dilution; top concentration 92.2 µM; 48 h.
With `O=c1[nH]c(=O)n(C2CCCO2)cc1F` (stereo not given), the viability amounted to 104.
